Data reported in ChEMBL document CHEMBL5465560, “Selectivity Literature for EUbOPEN Chemogenomic Library” (2024).

Experiments:
[1] = target: Phosphatidylinositol 4-kinase beta (Homo sapiens, UniProt Q9UBF8); test: Selectivity interaction (Kinase panel (KiNativ target engagement assay in Jurkat cells)) EUB0001635a PI4KB; type: cell-based; details: Selectivity number of off-targets 0.0, Selectivity number of targets 233.0, Source Knowledge https://www.sciencedirect.com/science/article/pii/S2451945619300674?via%3Dihub, at 1 µM
Sequence of Phosphatidylinositol 4-kinase beta (Q9UBF8 2-816 limits assumed): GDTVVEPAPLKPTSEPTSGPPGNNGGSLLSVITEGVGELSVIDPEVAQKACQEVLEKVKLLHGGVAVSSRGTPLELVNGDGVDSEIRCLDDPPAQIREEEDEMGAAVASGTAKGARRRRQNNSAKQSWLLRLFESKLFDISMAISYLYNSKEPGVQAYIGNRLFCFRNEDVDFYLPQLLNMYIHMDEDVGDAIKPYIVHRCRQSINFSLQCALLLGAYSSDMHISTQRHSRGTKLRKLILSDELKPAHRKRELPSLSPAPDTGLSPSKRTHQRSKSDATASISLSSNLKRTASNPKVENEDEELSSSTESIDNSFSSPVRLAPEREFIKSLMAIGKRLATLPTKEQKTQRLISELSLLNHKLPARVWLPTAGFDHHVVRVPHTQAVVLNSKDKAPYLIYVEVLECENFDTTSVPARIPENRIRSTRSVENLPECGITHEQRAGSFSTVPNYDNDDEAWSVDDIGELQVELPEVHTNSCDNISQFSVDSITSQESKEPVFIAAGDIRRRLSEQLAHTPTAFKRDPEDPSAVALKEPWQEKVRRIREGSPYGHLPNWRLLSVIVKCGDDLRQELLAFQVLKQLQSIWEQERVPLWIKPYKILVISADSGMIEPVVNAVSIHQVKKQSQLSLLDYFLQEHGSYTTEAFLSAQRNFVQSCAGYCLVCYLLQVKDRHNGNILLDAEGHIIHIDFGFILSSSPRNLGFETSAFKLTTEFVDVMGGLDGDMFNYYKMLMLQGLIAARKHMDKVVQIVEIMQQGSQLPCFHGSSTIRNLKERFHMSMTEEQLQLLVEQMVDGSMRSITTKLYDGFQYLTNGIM

[2] = target: Ribosomal protein S6 kinase alpha-4 (Homo sapiens) (UniProt O75676); details: at 10 µM
Sequence of Ribosomal protein S6 kinase alpha-4 (Homo sapiens) (O75676 whole entry, looked up): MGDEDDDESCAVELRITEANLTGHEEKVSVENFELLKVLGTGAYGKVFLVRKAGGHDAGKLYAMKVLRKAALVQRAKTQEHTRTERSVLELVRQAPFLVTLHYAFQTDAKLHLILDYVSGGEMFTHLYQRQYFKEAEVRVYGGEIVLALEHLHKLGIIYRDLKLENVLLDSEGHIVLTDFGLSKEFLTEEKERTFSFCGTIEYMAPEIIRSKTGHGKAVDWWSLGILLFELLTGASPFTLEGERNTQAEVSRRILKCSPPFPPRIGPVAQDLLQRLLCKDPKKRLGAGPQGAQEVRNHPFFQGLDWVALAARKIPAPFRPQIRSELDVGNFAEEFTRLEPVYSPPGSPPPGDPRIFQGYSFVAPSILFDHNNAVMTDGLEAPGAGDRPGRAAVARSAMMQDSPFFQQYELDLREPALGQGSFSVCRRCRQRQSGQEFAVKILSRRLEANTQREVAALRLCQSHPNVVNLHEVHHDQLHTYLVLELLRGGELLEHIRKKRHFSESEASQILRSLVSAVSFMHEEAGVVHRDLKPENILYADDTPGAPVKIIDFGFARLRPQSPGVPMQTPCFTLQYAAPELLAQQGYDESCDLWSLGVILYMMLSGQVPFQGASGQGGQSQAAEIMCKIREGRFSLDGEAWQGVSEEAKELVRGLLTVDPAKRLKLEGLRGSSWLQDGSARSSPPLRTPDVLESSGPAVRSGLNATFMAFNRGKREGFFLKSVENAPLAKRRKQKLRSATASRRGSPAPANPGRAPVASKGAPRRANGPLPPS

[3] = target: Insulin-like growth factor 1 receptor (Homo sapiens, UniProt P08069); test: Selectivity interaction (KinomeScan (DiscoverX)) EUB0000607a IGF1R; details: at 10 µM
Sequence of Insulin-like growth factor 1 receptor (P08069 31-736 limits assumed): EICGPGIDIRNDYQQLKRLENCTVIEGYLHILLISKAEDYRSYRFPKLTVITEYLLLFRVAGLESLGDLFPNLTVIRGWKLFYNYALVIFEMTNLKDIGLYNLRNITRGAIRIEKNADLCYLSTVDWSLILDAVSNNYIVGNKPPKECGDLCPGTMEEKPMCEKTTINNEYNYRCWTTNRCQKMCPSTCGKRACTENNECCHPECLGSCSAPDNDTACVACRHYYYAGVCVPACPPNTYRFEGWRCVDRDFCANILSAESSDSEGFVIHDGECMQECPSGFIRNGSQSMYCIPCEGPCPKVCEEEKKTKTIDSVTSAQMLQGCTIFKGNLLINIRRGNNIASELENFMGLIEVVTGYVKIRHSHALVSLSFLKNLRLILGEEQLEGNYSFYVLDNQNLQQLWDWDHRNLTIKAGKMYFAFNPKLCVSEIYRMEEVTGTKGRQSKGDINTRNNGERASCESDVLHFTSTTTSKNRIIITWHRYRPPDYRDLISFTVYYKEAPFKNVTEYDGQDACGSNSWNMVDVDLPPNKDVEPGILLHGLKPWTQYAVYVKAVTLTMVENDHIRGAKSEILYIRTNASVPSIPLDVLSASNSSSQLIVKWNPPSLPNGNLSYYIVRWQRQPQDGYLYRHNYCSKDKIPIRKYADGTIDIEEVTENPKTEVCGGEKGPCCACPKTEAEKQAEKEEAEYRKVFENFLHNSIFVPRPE
Sequence of Insulin-like growth factor 1 receptor (P08069 741-1367 limits assumed): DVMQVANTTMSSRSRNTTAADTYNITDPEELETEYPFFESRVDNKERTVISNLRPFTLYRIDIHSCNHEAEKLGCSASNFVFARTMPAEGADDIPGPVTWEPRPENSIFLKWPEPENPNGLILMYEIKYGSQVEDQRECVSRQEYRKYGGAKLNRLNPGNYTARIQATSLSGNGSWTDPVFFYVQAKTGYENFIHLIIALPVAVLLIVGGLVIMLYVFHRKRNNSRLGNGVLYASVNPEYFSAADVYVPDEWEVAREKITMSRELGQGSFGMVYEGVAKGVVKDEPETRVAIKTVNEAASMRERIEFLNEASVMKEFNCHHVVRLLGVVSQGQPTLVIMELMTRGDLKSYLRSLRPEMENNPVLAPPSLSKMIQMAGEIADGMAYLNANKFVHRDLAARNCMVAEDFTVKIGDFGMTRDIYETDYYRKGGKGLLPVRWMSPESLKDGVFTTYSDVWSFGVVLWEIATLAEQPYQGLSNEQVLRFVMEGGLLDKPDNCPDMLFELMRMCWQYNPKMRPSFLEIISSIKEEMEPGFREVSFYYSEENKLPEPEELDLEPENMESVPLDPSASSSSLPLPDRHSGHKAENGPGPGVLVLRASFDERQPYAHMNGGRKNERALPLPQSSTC

[4] = target: T1, Tyrosine-protein kinase ITK/TSK (Homo sapiens) (UniProt Q08881); test: Selectivity interaction (KinomeScan (DiscoverX)) EUB0000607a ITK; details: at 10 µM
T1 sequence (whole entry): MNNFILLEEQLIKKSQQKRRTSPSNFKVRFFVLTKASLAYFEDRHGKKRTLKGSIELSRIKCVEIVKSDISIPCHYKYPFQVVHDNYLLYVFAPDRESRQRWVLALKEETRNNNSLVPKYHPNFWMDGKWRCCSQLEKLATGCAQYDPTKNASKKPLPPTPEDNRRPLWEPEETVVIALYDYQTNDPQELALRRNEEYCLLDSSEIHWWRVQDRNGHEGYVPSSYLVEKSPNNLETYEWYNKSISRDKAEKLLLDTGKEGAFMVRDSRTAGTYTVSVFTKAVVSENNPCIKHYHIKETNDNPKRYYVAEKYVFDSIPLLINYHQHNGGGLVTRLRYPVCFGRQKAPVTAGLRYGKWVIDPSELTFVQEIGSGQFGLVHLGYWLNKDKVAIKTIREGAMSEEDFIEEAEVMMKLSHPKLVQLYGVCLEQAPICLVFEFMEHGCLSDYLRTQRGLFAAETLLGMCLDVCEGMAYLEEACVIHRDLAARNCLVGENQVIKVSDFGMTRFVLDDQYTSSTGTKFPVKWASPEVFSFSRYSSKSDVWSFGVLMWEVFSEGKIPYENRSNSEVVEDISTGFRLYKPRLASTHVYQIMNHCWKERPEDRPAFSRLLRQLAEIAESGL

[5] = target: Serine/threonine-protein kinase PLK1 (Homo sapiens, UniProt P53350); test: Selectivity interaction (KinomeScan (DiscoverX)) EUB0000595a PLK1; details: at 10 µM
Sequence of Serine/threonine-protein kinase PLK1 (P53350 whole entry): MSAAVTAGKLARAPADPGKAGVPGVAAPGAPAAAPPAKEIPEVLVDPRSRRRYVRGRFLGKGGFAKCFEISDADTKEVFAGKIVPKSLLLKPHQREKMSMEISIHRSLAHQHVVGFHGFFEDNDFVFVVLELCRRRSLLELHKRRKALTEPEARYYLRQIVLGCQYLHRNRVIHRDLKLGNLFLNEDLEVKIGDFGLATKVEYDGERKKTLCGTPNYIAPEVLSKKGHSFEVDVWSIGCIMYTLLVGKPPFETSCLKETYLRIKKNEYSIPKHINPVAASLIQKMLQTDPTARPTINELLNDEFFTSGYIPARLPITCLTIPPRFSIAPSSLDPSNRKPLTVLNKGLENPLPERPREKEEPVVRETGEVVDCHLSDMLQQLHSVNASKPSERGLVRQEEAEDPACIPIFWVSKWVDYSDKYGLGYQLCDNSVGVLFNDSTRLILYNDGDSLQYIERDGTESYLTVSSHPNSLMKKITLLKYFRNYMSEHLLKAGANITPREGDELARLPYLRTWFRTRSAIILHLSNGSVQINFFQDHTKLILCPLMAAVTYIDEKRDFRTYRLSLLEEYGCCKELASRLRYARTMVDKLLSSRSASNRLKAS

[6] = target: Dual specificity mitogen-activated protein kinase kinase 2 (Homo sapiens) (UniProt P36507); test: Selectivity interaction (KinomeScan (DiscoverX)) EUB0000595a MAP2K2; details: at 10 µM
Sequence of Dual specificity mitogen-activated protein kinase kinase 2 (Homo sapiens) (P36507 whole entry): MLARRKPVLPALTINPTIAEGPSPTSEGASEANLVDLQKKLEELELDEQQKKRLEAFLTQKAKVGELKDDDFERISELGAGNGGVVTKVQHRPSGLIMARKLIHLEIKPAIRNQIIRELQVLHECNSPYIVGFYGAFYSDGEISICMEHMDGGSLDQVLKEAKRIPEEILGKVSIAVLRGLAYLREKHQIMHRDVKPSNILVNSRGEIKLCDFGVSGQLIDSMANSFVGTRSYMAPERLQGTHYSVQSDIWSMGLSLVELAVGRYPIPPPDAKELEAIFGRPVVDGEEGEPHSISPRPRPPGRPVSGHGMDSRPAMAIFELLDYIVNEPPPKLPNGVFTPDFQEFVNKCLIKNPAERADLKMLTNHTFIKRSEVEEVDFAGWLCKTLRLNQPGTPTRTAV

[7] = target: T2, Serine/threonine-protein kinase D1 (Homo sapiens) (UniProt Q15139); test: Selectivity interaction (Kinase panel (literature)) EUB0001199aCl PRKD1; details: at 1 µM
T2 sequence (whole entry): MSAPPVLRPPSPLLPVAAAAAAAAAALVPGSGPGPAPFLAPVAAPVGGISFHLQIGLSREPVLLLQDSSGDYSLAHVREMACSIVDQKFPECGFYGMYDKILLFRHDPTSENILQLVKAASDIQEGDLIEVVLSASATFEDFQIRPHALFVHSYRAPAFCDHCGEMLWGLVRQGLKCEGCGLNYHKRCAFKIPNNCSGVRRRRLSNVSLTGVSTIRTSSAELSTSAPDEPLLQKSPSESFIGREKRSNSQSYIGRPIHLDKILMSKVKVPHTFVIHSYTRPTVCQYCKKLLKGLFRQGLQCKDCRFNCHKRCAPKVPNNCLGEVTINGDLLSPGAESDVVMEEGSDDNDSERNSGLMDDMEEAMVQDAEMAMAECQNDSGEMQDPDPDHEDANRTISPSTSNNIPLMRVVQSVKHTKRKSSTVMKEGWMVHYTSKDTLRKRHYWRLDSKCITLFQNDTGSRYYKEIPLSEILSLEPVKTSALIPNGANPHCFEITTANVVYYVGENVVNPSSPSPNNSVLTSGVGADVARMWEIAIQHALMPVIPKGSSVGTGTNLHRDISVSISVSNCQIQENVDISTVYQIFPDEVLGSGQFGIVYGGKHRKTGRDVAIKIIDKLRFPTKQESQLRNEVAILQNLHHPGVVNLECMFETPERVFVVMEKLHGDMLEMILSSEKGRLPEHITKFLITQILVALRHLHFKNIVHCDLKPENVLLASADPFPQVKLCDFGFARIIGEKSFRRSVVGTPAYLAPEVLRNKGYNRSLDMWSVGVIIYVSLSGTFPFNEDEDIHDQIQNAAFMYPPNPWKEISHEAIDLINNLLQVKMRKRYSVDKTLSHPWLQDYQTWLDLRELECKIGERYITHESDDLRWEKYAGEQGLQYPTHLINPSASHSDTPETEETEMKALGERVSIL

[8] = target: Ribosomal protein S6 kinase beta-1 (Homo sapiens, UniProt P23443); test: Selectivity interaction (KinomeScan (DiscoverX)) EUB0000618a RPS6KB1; details: at 10 µM
Sequence of Ribosomal protein S6 kinase beta-1 (P23443 whole entry, looked up): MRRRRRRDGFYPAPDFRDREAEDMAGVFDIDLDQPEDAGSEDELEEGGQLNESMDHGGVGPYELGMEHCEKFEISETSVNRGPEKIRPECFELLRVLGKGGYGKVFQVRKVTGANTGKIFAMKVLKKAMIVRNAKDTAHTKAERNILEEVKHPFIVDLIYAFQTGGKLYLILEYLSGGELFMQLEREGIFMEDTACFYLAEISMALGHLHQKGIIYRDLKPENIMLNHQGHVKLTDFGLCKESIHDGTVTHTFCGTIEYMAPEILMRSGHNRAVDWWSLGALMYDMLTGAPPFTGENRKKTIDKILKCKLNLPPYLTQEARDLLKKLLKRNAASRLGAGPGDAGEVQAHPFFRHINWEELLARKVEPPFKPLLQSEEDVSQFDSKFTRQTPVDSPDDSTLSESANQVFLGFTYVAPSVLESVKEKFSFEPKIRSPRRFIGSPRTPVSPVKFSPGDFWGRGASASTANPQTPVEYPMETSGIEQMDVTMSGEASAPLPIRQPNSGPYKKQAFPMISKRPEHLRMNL

[9] = target: T3, Dual specificity tyrosine-phosphorylation-regulated kinase 2 (Homo sapiens) (UniProt Q92630); test: Selectivity interaction (KinomeScan (DiscoverX)) EUB0001619a DYRK2; details: at 1 µM
T3 sequence (whole entry): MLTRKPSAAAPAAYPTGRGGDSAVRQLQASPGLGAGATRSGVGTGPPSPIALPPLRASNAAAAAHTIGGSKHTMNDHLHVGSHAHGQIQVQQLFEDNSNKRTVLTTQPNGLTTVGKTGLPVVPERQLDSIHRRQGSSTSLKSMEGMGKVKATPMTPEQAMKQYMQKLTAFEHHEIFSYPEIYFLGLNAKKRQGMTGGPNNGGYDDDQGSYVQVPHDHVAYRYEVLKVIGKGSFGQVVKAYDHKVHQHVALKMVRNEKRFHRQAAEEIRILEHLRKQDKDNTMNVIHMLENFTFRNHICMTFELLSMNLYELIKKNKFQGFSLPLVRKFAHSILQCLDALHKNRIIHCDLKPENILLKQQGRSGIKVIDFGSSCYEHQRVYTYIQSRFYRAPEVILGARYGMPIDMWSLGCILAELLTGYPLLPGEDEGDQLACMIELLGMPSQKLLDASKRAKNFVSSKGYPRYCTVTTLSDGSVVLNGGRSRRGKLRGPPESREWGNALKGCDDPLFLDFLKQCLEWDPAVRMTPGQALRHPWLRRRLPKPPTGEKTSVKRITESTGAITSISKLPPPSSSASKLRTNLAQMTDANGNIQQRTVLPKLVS

## C=CC(=O)Nc1ccc(C(=O)Nc2[nH]nc3c2CN(C(=O)N[C@H](CN(C)C)c2ccccc2)C3(C)C)cc1
[1]
  % of engagement: -11.3%

## Cc1cc([C@@H](C)Nc2ccccc2C(=O)O)c2nc(N3CCOCC3)cc(=O)n2c1 [AZD-6482]
[2]
  % of control: 94%

## CNC(=O)Nc1ccc(-c2nc(N3CC4CCC(C3)O4)c3cnn(C4CCC5(CC4)OCCO5)c3n2)cc1
[3]
  % of control: 93%
[4]
  % of control: 88%

## COCC(=O)NC/C=C/c1ccc2ncnc(Nc3ccc(Oc4ccc(C)nc4)c(C)c3)c2c1 [CP-724714]
[5]
  % of control: 81%
[6]
  % of control: 11%

## CN1Cc2nccc(-c3cn(C)nc3-c3ccc(F)cc3)c2C1=O
[7]
  % of inhibition: -11%

## O[C@H]1CC[C@H](Nc2ncc3nc(Nc4c(F)cc(F)cc4F)n([C@H]4CCOC4)c3n2)CC1
[8]
  % of control: 80%

## N#Cc1cccc(-c2c[nH]c3ncnc(N4CCOCC4)c23)c1
[9]
  % of control: 92%
